Source: patent publication US5843947A, “N-pyridyl carboxamides and derivatives” (priority 1994, dated 1998)

What was measured:
[1] = system: inflammation induced by carrageenan (plantar edema); test: Anti-inflammatory activity: plantar edema using carrageenan; format: in vivo, Sprague-Dawley rats; details: rat, compounds 10 mg/kg oral 30 min before carrageenan, indomethacin 10 mg/kg
Procedure: The method used is that of plantar edema using carrageenan. The procedure used is as follows: 1% carrageenan in 0.2 ml of […] is administered into the sole of the right foot of Sprague-Dawley rats weighing 250 g on average. The volume of the paw is measured by plethysmography after one hour and after two hours.
The compounds of the invention are administered in a 10 mg/kg oral dose 30 minutes before the administration of carrageenan. A saline solution is injected into the sole of the left foot, which serves as a control.
The compounds of the invention make it possible to reduce the increase in volume of the right foot relative to that of the left foot (Table 1).

[2] = system: acute cutaneous inflammation (phorbol ester ear edema); test: Activity against acute cutaneous inflammation (topical), phorbol ester ear edema; format: in vivo; details: mouse, 6 hours
Procedure: Phorbol ester (phorbol 12-myristate 13-acetate) (5 μg) is applied topically to the front and back surfaces of the right ear of the mouse 30 minutes after application of the vehicle (95% ethanol) or of the agent (1 mg). The difference in thickness between the right ear and the left ear (edema) is measured 6 hours after application.
The percentage of inhibition of cutaneous inflammation relative to a group of animals treated topically with 95% ethanol is calculated. The compound of Example 1, at a rate of 1 mg/ear, allows a 63% reduction of the inflammation. Indomethacin, taken as a reference, at a dose of 2.5 mg/ear, allows a 67% reduction of inflammation.

[3] = system: arthritis induced by killed Mycobacterium tuberculosis (complete Freund adjuvant); test: Study of an activity of anti-arthritic type in rats (complete Freund adjuvant); format: in vivo, Lewis rats; details: rat, oral, days 1 to 5; day 18
Procedure: Groups of 5 male or female Lewis rats weighing from 130 to 150 g are used. A suspension of 0.3 mg of killed Mycobacterium tuberculosis in 0.1 cm^3 of mineral oil (complete Freund adjuvant, CFA) is administered into the subplantar region of the right hind foot on day 1. The volumes of the hind feet are measured by water displacement on days 0, 1, 5, 14 and 18. The rats are weighed on days 0 and 18. The test products are suspended in carboxymethylcellulose and administered orally for 5 consecutive days, on days 1 to 5. In parallel, a control group is used in order to eliminate artefacts resulting from the handling of the animals. A group treated with a reference product (hydrocortisone) allows the test to be validated.

[4] = system: chronic inflammation of the ear induced by repeated phorbol ester; test: Curative activity after repeated topical application in chronic inflammation of the ear, repeated phorbol ester (PMA) for 15 days (model of psoriasis); format: in vivo; details: mouse, 0.5 mg/ear
Procedure: Phorbol ester (1 μg) is applied topically to the front and back surfaces of the right ear of the mouse on days 0, 2, 4, 7, 9, 11 and 14. The vehicle or the agent is applied topically twice daily, on days 7, 8, 9, 10, 11, 12, 13 and 14, and once on the 15th day. On days 7, 9, 11 and 14 the vehicle or the agent is applied 30 minutes before and after the phorbol ester.
Two parameters are measured
1. Difference in thickness between the right and left ears every day and on days 0, 2, 4, 7, 9, 11 and 14, 6 hours after repeated application of the phorbol ester.
After repeated application of phorbol ester and after 15 days, the thickness reflects not only the presence of an edema and of an infiltration of lymphocyte and monocyte-macrophage neutrophil type cells in the skin tissue (inflammation) but also of an increase in the thickness of the epidermis (epidermal hyperplasia secondary to a proliferation of keratinocytes). […]
The products of the invention, in topical, curative and repeated use, inhibit, between the 8th and 10th days, the chronic inflammation of the right ear (measured, on the one hand, by the difference in thickness between the right ear and the left ear, and, on the other hand, by the difference in weight between the two ears after sacrificing the animal on the 15th day) induced by a repeated application of phorbol ester in mice.

[5] = Study of the diuretic activity (urinary volume); format: in vivo, rats; details: 6 hours
[6] = system: chronic inflammation of the ear induced by repeated phorbol ester; details: 15 days after repeated application of phorbol ester; cited from earlier work

Molecule	Percentage of inhibition, 1 h [1] [%]	Percentage of inhibition, 2 h [1] [%]	topical activity in the chronic model (in words) [6]	also measured
Cc1cc(C)nc(NC(=O)c2cnccn2)c1	55	64	–	–
Cc1cc(C)nc(NC(=O)Cc2cccs2)c1 [Example 1, N-(4,6-DIMETHYL-2-PYRIDYL)-2-THIENYLACETAMIDE]	–	–	–	reduction of the inflammation ([2]; 1 mg/ear): 63%; reduction in the volume of the right hind foot [3]: 47%
Cc1nc(N)c(NC(=O)Cc2ccsc2)c(C)c1Br [Example 17, N-(2-AMINO-5-BROMO-4,6-DIMETHYL-3-PYRIDYL)-3-THIENYLACETAMIDE]	–	–	–	reduction of the difference in thickness between the two ears [4]: 60%; reduction of the weight difference ([4]; ear punches): 38%
Cc1cc(C)nc(NC(=NN)c2cnccn2)c1 [Example 25, N-(4,6-DIMETHYL-2-PYRIDYL)-2-PYRAZINECARBOXAMIDE HYDRAZONE]	–	–	–	increase of urinary volume (factor relative to an untreated rat) ([5]; 3 mg/kg p.o.): 2.8
COc1ccc2c(c1)c(CC(=O)O)c(C)n2C(=O)c1ccc(Cl)cc1 [Indomethacin, reference compound]	24	64	topically inactive	reduction of inflammation, reference ([2]; 2.5 mg/ear): 67%
Cc1cc(C)nc(NC(=O)Cc2cccs2)c1 [drawing 58]	63	70	–	–
NS(=O)(=O)c1cc(C(=O)O)c(NCc2ccco2)cc1Cl [furosemide, reference compound]	–	–	–	increase of urinary volume (factor), reference ([5]; rat, 5 mg/kg p.o.): 3
CN1C(C(=O)Nc2ccccn2)=C(O)c2ccccc2S1(=O)=O [piroxicam]	–	–	topically inactive	–
cyclosporin A	–	–	topically active	–
